Source: paper PMC7838189, “Natural podophyllotoxin analog 4DPG attenuates EMT and colorectal cancer progression via activation of checkpoint kinase 2” (Cell Death Discovery, 2021)
Several values for one entry are separate records, joined by “and”; a condition that tells them apart may be missing. Identical values can stand only once.

Tests used:
[1] = Pharmacokinetic study, single i.v. dose; type: in vivo; conditions: 5 mg/kg i.v. single dose, Balb/c mice
Procedure: Subsequently, to evaluate the exposure of 4DPG in healthy animals, we performed PK analysis in Balb/c mice by administering a single dose (5 mg/kg) of the compound intravenously.
The PK studies were performed following our standardized procedure with minor modifications. To determine the PK profile of 4DPG, healthy male Balb/c mice (body weight 25–30 g each) were employed in the study. Six animals were enrolled for each sampling time point and a total of 11 time points (0.083, 0.25, 0.5, 1, 2, 4, 6, 8, 12, 16, and 24 h) were involved in the study. Control group of mice were administered with saline and test groups of animals received a single dose of 4DPG (5 mg/kg, body weight) intravenously. After the successful injections of the molecule, 100 µL of plasma was collected from each animal enrolled at the above sampling time points and the plasma proteins were precipitated with 400 µL of acetonitrile. Following extraction into the solvent and subsequent filtration, the compound was analyzed using a 6410 triple-quadrupole LC–MS/MS system (Agilent Technologies, USA). Individual samples collected at each time point were quantified through single ion monitoring (SIM) by comparing with the standard calibration curve prepared using Agilent Mass Hunter software (version B.04.00) (detailed description is provided in Supplementary information file). Essential PK parameters such as half-life (t1/2), C initial (C0), area under the curve (AUC0–∞), volume of distribution (Vd), clearance (Cl), and mean residence time (MRT) were calculated utilizing noncompartmental pharmacokinetic data analysis.

[2] = test system: tumor tissues of orthotopic rat colorectal carcinoma; assay: Western blotting of tumor tissues; type: in vivo, Wistar rats; conditions: 4DPG-treated group vs saline
Procedure: We adhered to the previously published protocol for western blotting. To sum up, cells were exposed to the respective treatments (mentioned in figure legends). Post-treatment, cells were lysed with cell lysis buffer, and cell lysates were collected after centrifugation. Bradford assay was performed to quantify the protein concentration. Equal amount of protein was taken from each sample to carry out the western blot analysis. SDS-PAGE was employed to separate the proteins that were later transferred onto PVDF membranes (Millipore, Billerica, MA). Next, the membranes were blocked with 5% skim milk and subsequently incubated with the specific primary antibodies (1:1000 dilution), either for 3 h at room temperature or overnight at 4 °C. Later, the blots were washed thoroughly with TBST and probed with the respective secondary antibodies (1:2000 dilution) coupled with horseradish peroxidase for 1 h. Following thorough washing, the membranes were visualized using enhanced chemiluminescence reagent (Millipore) and captured onto Biomax light film (The Eastman Kodak Co., Rochester, NY).

[3] = test system: orthotopic rat colorectal carcinoma; conditions: 25 mg/kg thrice a week for 3 weeks
Source text: To examine the antitumor and anti-metastatic efficacy of 4DPG in vivo, we employed a carcinogen-induced orthotopic rat colorectal carcinoma model. […] The schematic representation briefly describes the steps involved in the generation of orthotopic colorectal tumors along with the treatment strategy and further analysis (details in “Materials and methods”). The animals were euthanized at the end of the experiment and evaluated for tumor and metastatic burden (Fig. 4A). […] To validate whether our in vitro observations on mechanistic inhibition of EMT and invasion by 4DPG hold true in vivo, we performed immunohistochemical analysis of the tumor tissues acquired from the saline and 4DPG-treated animal groups.
A Model depicting the procedure adopted for generating the carcinogen-induced orthotopic rat CRC model, treatment strategies of 4DPG, evaluation of tumor burden, and further biochemical analysis. B Representative images of large bowel showing the colorectal tumor growth in saline, 5-FU (25 mg/kg), and 4DPG (25 mg/kg) treated groups of animals. C, D Quantification of tumor volume and number of polyps per rat in above groups of animals. n = 6 rats per group, error bars: mean ± SD; *P < 0.05, **P < 0.01, ***P < 0.001. E Representative images of the lungs dissected from the above groups of animals showing metastatic tumor burden. Orange arrows indicating bumps of secondary tumors over each lobe of lungs. F, G Quantification of a number of macroscopic secondary tumors over the lung tissues and lung weight in the above groups of animals. n = 6 rats per group, error bars, mean ± SD; **P < 0.01, ***P < 0.001. […] Scale bar: 50 µm. I Western blots depicting expression of p-Chk2 (Thr68), Chk2, p53, p-Vimentin (Ser38), and Vimentin in tumor tissues obtained from saline- and 4DPG-treated groups of animals. β-Actin expression was taken as endogenous loading control. J Densitometry analysis of the above western blot bands portraying relative protein expression of the markers presented. n = 3, error bars: mean ± SD; **P < 0.01, ***P < 0.001.
Animal studies were performed following the guidelines approved by Institutional Animal Ethics Committee (IAEC No. 51/02/15) of CSIR-Indian Institute of Integrative Medicine, Jammu, India. The experiment was performed according to our standardized protocol described previously with necessary modifications. Five-weeks-old healthy male Wistar rats (body weight 150–200 g) were maintained in aseptic condition with free access to food and water. Animals were randomized into three groups, with six animals per group. All the rats received intrarectal instillation of 0.5 mL of freshly prepared 0.4% aqueous solution of N-methyl-N-nitrosourea (MNU) thrice a week for 3 weeks, for the orthotopic induction of colorectal tumors. The solution was injected using sterile syringe with attached 8-cm long rubber catheter tube inserted two-thirds into the colon lumen through anal orifice, as described previously. The animals were kept under continuous monitoring, and the body weight was measured once per week. Following 22 weeks after the initiation of MNU administration, treatment regimens were started by administering 5-FU (25 mg/kg), and 4DPG (25 mg/kg) thrice a week for 3 weeks. The control and treatment groups of animals were dosed separately by three independent investigators and the outcomes were assessed by a fourth investigator blind about the dosing process and treatment regimen.

COc1cc([C@@H]2c3cc4c(cc3C[C@H]3COC(=O)[C@@H]32)OCO4)cc(OC)c1O[C@@H]1O[C@H](CO)[C@@H](O)[C@H](O)[C@H]1O [4DPG, 4′-demethyl-deoxypodophyllotoxin glucoside]
Area under curve (AUC0-t) [1]: 10068.884 ng·h/mL | Area under curve (AUC0-∞) [1]: 10104.05 ng·h/mL and 10104.053 ng·h/mL | Clearance (Cl) [1]: 8.25 mL/min/kg | Half-life (t1/2) [1]: 39.2 min | Mean residence time (MRT) [1]: 18.4 min | Volume of distribution (Vd) [1]: 0.466 L/kg | C initial (C0) ([1]; plasma): 10165.18 ng/mL | activation of p53 in tumor tissues [2]: 5.82 fold | activation of p-Chk2 (Thr68) in tumor tissues [2]: 3.54 fold | downmodulation of Vimentin in tumor tissues [2]: 8.3 fold | downmodulation of p-Vimentin (ser38) in tumor tissues [2]: 18.2 fold | lung metastases [3]: strongly prevented the development of lung metastases | drug-related toxicity/adverse effects ([3]; until end of experiment): without any drug-related toxicity/adverse effects | average number of polyps ([3]; control group 16): 3 | mean tumor volume ([3]; saline control 820.6 mm^3): 116.8 mm^3
